In brackets after ≈: the same amount, converted by molar mass.
Legend:
[1] = tested on: L. donovani intracellular amastigotes infecting THP-1 cells; assay: High content intracellular amastigote assay in THP-1 cells (Assay Conditions B; CDIPD screen); format: cell-based, Leishmania donovani; details: for L. donovani amastigotes % GI at 10 μM (THP-1 cells): footnote b
Description: (§1) Assay Conditions B: THP-1 cells (human acute monocytic leukemia cell line—ATCC TIB202) were grown in RPMI supplemented with 10% Fetal Bovine Serum (FBS) and 50 μM 2-mercaptoethanol at 37° C. in 5% CO2. THP-1 were seeded in microwell plates at 5×10^5 cells/mL density and treated with 0.1 μM phorbol myristate acetate (PMA, Sigma) at 37° C. for 48 h for differentiation into adherent, non-dividing macrophages. After activation by PMA, cells were washed and incubated with complete RPMI medium containing stationary phase Leishmania promastigotes (L. major: strain LV39; L. donovani, strain 1S/Cl2D) at a 1:15 parasite-cell ratio. Compounds were added and incubated at 37° C. for 72 h. Cells were then washed with phosphate-buffered saline (PBS), fixed for 30 minutes with 4% formaldehyde, rinsed again with PBS, stained for 2 h with 4′,6′-diamidino-2-phenylindole (DAPI 300 nM) and finally washed with PBS. In a collaborative effort to identify new antileishmanial chemotypes with minimal host cell cytotoxicity, compounds from the Boston University Center for Molecular Discovery (BUCMD) screening collection were assessed in a phenotypic, high content primary screen at the University of California's Center for Discovery and Innovation in Parasitic Diseases (CDIPD) for the ability to inhibit growth of L. donovani intracellular amastigotes infecting THP-1 cells. […] Dose-response testing in L. donovani (both intracellular amastigotes and promastigotes) confirmed concentration-dependent growth inhibition of both morphologies of the parasite at low micromolar EC50 values for both compounds (Table 1).

THP-1 cells = assay: Host THP-1 cell cytotoxicity in the CDIPD high content screen; format: cell-based, human; details: Homo sapiens, THP-1; 10 μM; footnote b; read-out: THP-1 host cell % growth inhibition at 10 μM
Description: as §1

[2] = tested on: L. donovani intracellular amastigotes infecting THP-1 macrophages; assay: GSK intramacrophage L. donovani assay (LD AMMAC, inMac; Assay Conditions C); format: cell-based; details: Leishmania donovani, THP-1
Summary of the method: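 L. donovani amastigotes within THP-1 macrophages; EC50 based on average intracellular amastigotes per infected cell (AMMAC). Infected-cell percentage (INFCELL) and host-cell number (MAC) also read, the latter as toxicity output.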

[3] = tested on: L. donovani intracellular amastigotes in B10R cells; assay: UCSD L. donovani infection assay (Assay Conditions D); format: cell-based; details: Leishmania donovani; for EC50: average of two biological replicates, read-out: L. donovani EC50 (UCSD assay)
Summary of the method: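 B10R cells (300/well) infected with stationary-phase L. donovani WT promastigotes at 20 parasites/cell in DMEM high-glucose, 5% FBS, with compounds 72 h at 37° C., 5% CO2. Formaldehyde-fixed, DAPI-stained, imaged by high-content microscopy; 10-point 2-fold dilutions (screen at 10 μM) gave EC50 and host CC50.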

[4] = Kinetic aqueous solubility by CAD; format: physicochemical; details: aqueous medium, kinetic from dmso stock, high-throughput CAD
Description: Solubility of compounds using ChemiLuminescent Nitrogen Detection (CLND) was measured as described. Solubility of compounds using Charged Aerosol Detection (CAD) was measured as described. Solubility of solid compounds in Fasted Simulated Intestinal Fluid (FaSSIF) was measured as described.

human serum albumin = human serum albumin (Homo sapiens, UniProt P02768); assay: Human serum albumin (HSA) binding, chromatographic; format: in vitro ADME
Sequence of human serum albumin (P02768 25-609): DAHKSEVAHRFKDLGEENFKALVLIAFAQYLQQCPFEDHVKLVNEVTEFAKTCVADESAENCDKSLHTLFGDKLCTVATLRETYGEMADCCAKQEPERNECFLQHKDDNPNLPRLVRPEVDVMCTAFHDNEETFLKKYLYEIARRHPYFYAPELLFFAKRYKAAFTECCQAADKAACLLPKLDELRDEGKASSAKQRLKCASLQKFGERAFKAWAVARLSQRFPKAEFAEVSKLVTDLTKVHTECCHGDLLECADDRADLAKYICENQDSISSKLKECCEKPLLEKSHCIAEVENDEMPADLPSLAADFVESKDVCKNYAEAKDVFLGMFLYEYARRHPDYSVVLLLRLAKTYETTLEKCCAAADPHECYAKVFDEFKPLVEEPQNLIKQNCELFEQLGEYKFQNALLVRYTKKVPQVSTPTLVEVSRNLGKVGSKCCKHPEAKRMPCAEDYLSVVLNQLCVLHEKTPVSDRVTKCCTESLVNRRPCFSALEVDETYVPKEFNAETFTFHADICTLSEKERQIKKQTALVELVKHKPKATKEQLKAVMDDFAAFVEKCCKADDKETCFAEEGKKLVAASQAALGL
Description: The percentage of compound bound to human serum albumin was measured using a chromatographic method as described. Briefly, each compound was assayed on an immobilized HSA column and gradient retention times measured, with chromatographic peak detection by UV. Each retention time was then converted to a % HSA bound value using a calibration set of compounds with a known % HSA binding.

[5] = Property forecast index (PFI = ChromLogD7.4 + aromatic rings); format: physicochemical
[6] = UCSD infection assay, host cell cytotoxicity (CC50); format: cell-based; details: host macrophages infected with L. donovani; cytotoxicity against host macrophages

Structure (SMILES): COc1ccc(N2C(=O)c3[nH]nc(-c4ccccc4)c3C2c2ccc(F)cc2)cc1 (stereo not drawn) [CMLD007235]
- L. donovani amastigotes % GI at 10 μM (THP-1 cells) [1]: 0.0%
- inhibition at 10 µM (THP-1 cells): 30%

Structure (SMILES): COc1ccc(N2C(=O)c3[nH]nc(C)c3C2c2ccc(C)cc2)cc1 (stereo not drawn) [CMLD007247]
- L. donovani amastigotes % GI at 10 μM (THP-1 cells) [1]: 0.0%
- inhibition at 10 µM (THP-1 cells): < 10%

Structure (SMILES): COc1ccc(N2C(=O)c3[nH]nc(-c4ccccc4)c3C2c2ccc(C)cc2)cc1 (stereo not drawn) [CMLD007262]
- L. donovani amastigotes % GI at 10 μM (THP-1 cells) [1]: 0.0%
- inhibition at 10 µM (THP-1 cells): < 10%

Structure (SMILES): COc1ccc(N2C(=O)c3[nH]nc(C(C)C)c3C2c2ccccc2)cc1 (stereo not drawn) [CMLD007286]
- L. donovani amastigotes % GI at 10 μM (THP-1 cells) [1]: 0.0%
- inhibition at 10 µM (THP-1 cells): < 10%

Structure (SMILES): CC(C)Cc1n[nH]c2c1C(c1ccccc1)N(c1ccccc1)C2=O (stereo not drawn) [CMLD007421]
- L. donovani amastigotes % GI at 10 μM (THP-1 cells) [1]: 0.0%
- inhibition at 10 µM (THP-1 cells): < 10%

Structure (SMILES): Cc1ccc(C2c3c(CC(C)C)n[nH]c3C(=O)N2c2ccccc2)cc1 (stereo not drawn) [CMLD007424]
- L. donovani amastigotes % GI at 10 μM (THP-1 cells) [1]: 81.0%
- inhibition at 10 µM (THP-1 cells): 35%

Structure (SMILES): CC(C)Cc1n[nH]c2c1C(c1ccc(F)cc1)N(c1ccccc1)C2=O (stereo not drawn) [CMLD007425]
- L. donovani amastigotes % GI at 10 μM (THP-1 cells) [1]: 15.0%
- inhibition at 10 µM (THP-1 cells): 13%

Structure (SMILES): COc1ccc(N2C(=O)c3[nH]nc(CC(C)C)c3C2c2ccc(C)cc2)cc1 (stereo not drawn) [CMLD007430]
- L. donovani amastigotes % GI at 10 μM (THP-1 cells) [1]: 0.0%
- inhibition at 10 µM ([1]; Leishmania donovani, THP-1, read-out: inhibition at 10 μM (initial screening)): 0%
- inhibition at 10 µM (THP-1 cells): < 10%

Structure (SMILES): CC(C)Cc1n[nH]c2c1C(c1ccccc1Cl)N(c1ccc3c(c1)OCO3)C2=O (stereo not drawn) [Compound 67, 5-(benzo[d][1,3]dioxol-5-yl)-4-(2-chlorophenyl)-3-isobutyl-4,5-dihydropyrrolo[3,4-c]pyrazol-6(1H)-one]
- IC50 [2]: 500 nM
- IC50 [3]: 200 nM
- EC50 [3]: 160 nM
- solubility [4]: 35 µM (≈ 14.3 µg/mL)
- HSA Binding (human serum albumin): 98.0%
- PFI [5]: 8.7
- CC50 at 72 h [6]: 12.2 µM

Structure (SMILES): Cc1cc(F)ccc1C1c2c(CC(C)C)n[nH]c2C(=O)N1c1ccc2c(c1)OCO2 (stereo not drawn) [Compound 70, 5-(benzo[d][1,3]dioxol-5-yl)-4-(4-fluoro-2-methylphenyl)-3-isobutyl-4,5-dihydropyrrolo[3,4-c]pyrazol-6(1H)-one]
- IC50 [2]: > 100000 nM
- IC50 [3]: 100 nM
- EC50 [3]: 100 nM
- solubility [4]: 46 µM (≈ 18.7 µg/mL)
- HSA Binding (human serum albumin): 97.6%
- PFI [5]: 8.6
- CC50 at 72 h [6]: 12.1 µM

Structure (SMILES): COc1ccc(N2C(=O)c3[nH]nc(CC(C)C)c3C2c2ccccc2OC)cc1F (stereo not drawn) [Compound 72, 5-(3-fluoro-4-methoxyphenyl)-3-isobutyl-4-(2-methoxyphenyl)-4,5-dihydropyrrolo[3,4-c]pyrazol-6(1H)-one]
- IC50 [2]: 1300 nM
- IC50 [3]: 400 nM
- EC50 [3]: 380 nM
- solubility [4]: 43 µM (≈ 17.6 µg/mL)
- HSA Binding (human serum albumin): 95.9%
- PFI [5]: 8.5
- CC50 at 72 h [6]: 0.26 µM

Structure (SMILES): COc1ccc(N2C(=O)c3[nH]nc(CC(C)C)c3C2c2ccc(F)cc2C)cc1F (stereo not drawn) [Compound 73, 4-(4-fluoro-2-methylphenyl)-5-(3-fluoro-4-methoxyphenyl)-3-isobutyl-4,5-dihydropyrrolo[3,4-c]pyrazol-6(1H)-one]
- IC50 [2]: 3200 nM
- IC50 [3]: 200 nM
- EC50 [3]: 160 nM
- solubility [4]: 35 µM (≈ 14.4 µg/mL)
- HSA Binding (human serum albumin): 96.3%
- PFI [5]: 8.8
- CC50 at 72 h [6]: 10.9 µM

Structure (SMILES): CC(C)Cc1n[nH]c2c1C(c1ccccc1Br)N(c1ccc(Br)cc1)C2=O (stereo not drawn) [Compound 74, 4-(2-bromophenyl)-5-(4-bromophenyl)-3-isobutyl-4,5-dihydropyrrolo[3,4-c]pyrazol-6(1H)-one]
- IC50 [2]: 10000 nM
- IC50 [3]: 400 nM
- EC50 [3]: 390 nM
- solubility [4]: < 1 µM
- HSA Binding (human serum albumin): 98.0%
- PFI [5]: 10.4
- CC50 at 72 h [6]: 4.98 µM

Structure (SMILES): COc1ccccc1C1c2c(CC(C)C)n[nH]c2C(=O)N1c1ccc(Br)cc1 (stereo not drawn) [Compound 75, 5-(4-bromophenyl)-3-isobutyl-4-(2-methoxyphenyl)-4,5-dihydropyrrolo[3,4-c]pyrazol-6(1H)-one]
- IC50 [2]: 500 nM
- IC50 [3]: 200 nM
- EC50 [3]: 240 nM
- solubility [4]: < 1 µM
- HSA Binding (human serum albumin): 97.5%
- PFI [5]: 9.6
- CC50 at 72 h [6]: 1.14 µM

Structure (SMILES): Cc1cc(F)ccc1C1c2c(CC(C)C)n[nH]c2C(=O)N1c1ccc(Br)cc1 (stereo not drawn) [Compound 76, 5-(4-bromophenyl)-4-(4-fluoro-2-methylphenyl)-3-isobutyl-4,5-dihydropyrrolo[3,4-c]pyrazol-6(1H)-one]
- IC50 [2]: 600 nM
- IC50 [3]: 100 nM
- EC50 [3]: 120 nM
- solubility [4]: < 1 µM
- HSA Binding (human serum albumin): 97.7%
- PFI [5]: 9.8
- CC50 at 72 h [6]: 3.04 µM

Structure (SMILES): COc1cc(F)ccc1C1c2c(CC(C)C)n[nH]c2C(=O)N1c1ccc(Br)cc1 (stereo not drawn) [Compound 77, 5-(4-bromophenyl)-4-(4-fluoro-2-methoxyphenyl)-3-isobutyl-4,5-dihydropyrrolo[3,4-c]pyrazol-6(1H)-one]
- IC50 [2]: 100 nM
- IC50 [3]: 100 nM
- EC50 [3]: 120 nM
- solubility [4]: < 1 µM
- HSA Binding (human serum albumin): 98.5%
- PFI [5]: 9.7
- CC50 at 72 h [6]: 4.04 µM

Structure (SMILES): CC(C)Cc1n[nH]c2c1C(c1ccccc1Cl)N(c1ccc(N(C)C)cc1)C2=O (stereo not drawn) [Compound 78, 4-(2-chlorophenyl)-5-(4-(dimethylamino)phenyl)-3-isobutyl-4,5-dihydropyrrolo[3,4-c]pyrazol-6(1H)-one]
- IC50 [2]: 800 nM
- IC50 [3]: 300 nM
- EC50 [3]: 260 nM
- solubility [4]: 21 µM (≈ 8.59 µg/mL)
- HSA Binding (human serum albumin): 96.7%
- PFI [5]: 9.4
- CC50 at 72 h [6]: 7.32 µM

Structure (SMILES): COc1ccccc1C1c2c(CC(C)C)n[nH]c2C(=O)N1c1ccc(N(C)C)cc1 (stereo not drawn) [Compound 80, 5-(4-(dimethylamino)phenyl)-3-isobutyl-4-(2-methoxyphenyl)-4,5-dihydropyrrolo[3,4-c]pyrazol-6(1H)-one]
- IC50 [2]: 200 nM
- IC50 [3]: 100 nM
- EC50 [3]: 70 nM
- solubility [4]: 66 µM (≈ 26.7 µg/mL)
- HSA Binding (human serum albumin): 95.7%
- PFI [5]: 8.6
- CC50 at 72 h [6]: 3.45 µM

Structure (SMILES): Cc1cc(F)ccc1C1c2c(CC(C)C)n[nH]c2C(=O)N1c1ccc(N(C)C)cc1 (stereo not drawn) [Compound 81, 5-(4-(dimethylamino)phenyl)-4-(4-fluoro-2-methylphenyl)-3-isobutyl-4,5-dihydropyrrolo[3,4-c]pyrazol-6(1H)-one]
- IC50 [2]: 100 nM
- IC50 [3]: 100 nM
- EC50 [3]: 110 nM
- solubility [4]: 27 µM (≈ 11 µg/mL)
- HSA Binding (human serum albumin): 96.5%
- PFI [5]: 9.1
- CC50 at 72 h [6]: 7.51 µM

Structure (SMILES): COc1cc(F)ccc1C1c2c(CC(C)C)n[nH]c2C(=O)N1c1ccc(N(C)C)cc1 (stereo not drawn) [Compound 82, 5-(4-(dimethylamino)phenyl)-4-(4-fluoro-2-methoxyphenyl)-3-isobutyl-4,5-dihydropyrrolo[3,4-c]pyrazol-6(1H)-one]
- IC50 [2]: 4000 nM
- EC50 [3]: 40 nM
- solubility [4]: 45 µM (≈ 19 µg/mL)
- HSA Binding (human serum albumin): 97.1%
- PFI [5]: 8.8
- CC50 at 72 h [6]: 8.5 µM

Structure (SMILES): COc1ccc(N2C(=O)c3[nH]nc(CC(C)C)c3C2c2ccccc2OC)cn1 (stereo not drawn) [Compound 85, 3-isobutyl-4-(2-methoxyphenyl)-5-(6-methoxypyridin-3-yl)-4,5-dihydropyrrolo[3,4-c]pyrazol-6(1H)-one]
- IC50 [2]: 7900 nM
- IC50 [3]: 1100 nM
- EC50 [3]: 1110 nM
- solubility [4]: 176 µM (≈ 69.1 µg/mL)
- HSA Binding (human serum albumin): 93.9%
- PFI [5]: 8.0
- CC50 at 72 h [6]: > 20 µM

Structure (SMILES): Cc1cc(F)ccc1C1c2c(CC(C)C)n[nH]c2C(=O)N1c1ccc2ncnn2c1 (stereo not drawn) [Compound 89, 5-([1,2,4]triazolo[1,5-a]pyridin-6-yl)-4-(4-fluoro-2-methylphenyl)-3-isobutyl-4,5-dihydropyrrolo[3,4-c]pyrazol-6(1H)-one]
- IC50 [2]: 1600 nM
- IC50 [3]: 900 nM
- EC50 [3]: 870 nM
- solubility [4]: < 1 µM
- HSA Binding (human serum albumin): 93.2%
- PFI [5]: 8.1
- CC50 at 72 h [6]: > 20 µM
